Data as given in paper PMC8376931, “Structure activity relationships and the binding mode of quinolinone-pyrimidine hybrids as reversal agents of multidrug resistance mediated by P-gp” (Scientific Reports, 2021).
Like-named read-outs stand apart in the source and are kept apart here.

Experiments:
P-gp [1] = biological target: T1, P-gp (Homo sapiens, UniProt P08183); conditions: 1 h
Experimental: (§1) The intracellular accumulation of the fluorescent probes, Dox and Rho123, was determined by monitoring its fluorescence intensity using flow cytometry (96-well plate format), as previously reported. The inhibition on the outward transport of these P-gp substrates results in an increased […] fluorescence intensity (MFI). […] Those compounds showing inhibition on P-gp at the maximum tested concentration were further evaluated at serial dilutions to determinate their MECs. […] The plates were then incubated in a 5% CO2 incubator for 1 h at 37 °C. Afterwards, 5 μM Dox was added to each well. The other fluorescent specific substrate of P-gp, Rho123, however, was added at 500 ng/mL to additionally measure the ability of the most promising compounds to block its efflux. Subsequently, cells from both assays were washed twice with cold PBS, and 15,000 events from each sample were analyzed to determine the cell-associated fluorescence. Dead cells were eliminated by means of forward- and side-scatter parameters. […] The blocking of the P-gp transport function was evaluated by the parameter FIR, calculated as the ratio of the MFI of Dox or Rho123 with the addition of the likely inhibitor to the MFI of Dox or Rho123 alone.

K562 cells = experiment: Doxorubicin intracellular accumulation assay (flow cytometry) in K562; format: cell-based; set-up: key: MFI with inhibitor / MFI of Dox alone; conditions: 5 μM Dox
Experimental: as §1

[2] = MTT cytotoxicity assay in K562; format: cell-based; conditions: human, K562 cells, read-out: IC50 (cytotoxicity) against K562
Experimental: (§2) Then 0.5 mg/mL MTT in PBS was added. After additional incubation for 4 h, the formazan crystals obtained were dissolved in DMSO and the absorbance at 595 nm was read on an iMark micro-plate reader (Bio-Rad, USA). IC50 values for cytotoxicity were then calculated as reported[50] using nonlinear regression by GraphPad Prism 7 (Graphpad Software, Inc., San Diego, CA, USA, www.graphpad.com).
(§3) The cells were incubated at 37 °C at 5% CO2 for 48 h and the same protocol described above was followed. IC50 values of Dox were then obtained.

[3] = MTT cytotoxicity assay in Lucena 1; format: cell-based; conditions: human, Lucena 1 cells, read-out: IC50 (cytotoxicity) against Lucena 1
Experimental: as §2, §3

P-gp [4] = biological target: T1, P-gp
Experimental: The intracellular accumulation of the fluorescent probes, Dox and Rho123, was determined by monitoring its fluorescence intensity using flow cytometry (96-well plate format), as previously reported. The inhibition on the outward transport of these P-gp substrates results in an increased […] fluorescence intensity (MFI). […] The plates were then incubated in a 5% CO2 incubator for 1 h at 37 °C. Afterwards, 5 μM Dox was added to each well. The other fluorescent specific substrate of P-gp, Rho123, however, was added at 500 ng/mL to additionally measure the ability of the most promising compounds to block its efflux. Subsequently, cells from both assays were washed twice with cold PBS, and 15,000 events from each sample were analyzed to determine the cell-associated fluorescence. Dead cells were eliminated by means of forward- and side-scatter parameters. […] The blocking of the P-gp transport function was evaluated by the parameter FIR, calculated as the ratio of the MFI of Dox or Rho123 with the addition of the likely inhibitor to the MFI of Dox or Rho123 alone.

T1 sequence (P08183 whole entry): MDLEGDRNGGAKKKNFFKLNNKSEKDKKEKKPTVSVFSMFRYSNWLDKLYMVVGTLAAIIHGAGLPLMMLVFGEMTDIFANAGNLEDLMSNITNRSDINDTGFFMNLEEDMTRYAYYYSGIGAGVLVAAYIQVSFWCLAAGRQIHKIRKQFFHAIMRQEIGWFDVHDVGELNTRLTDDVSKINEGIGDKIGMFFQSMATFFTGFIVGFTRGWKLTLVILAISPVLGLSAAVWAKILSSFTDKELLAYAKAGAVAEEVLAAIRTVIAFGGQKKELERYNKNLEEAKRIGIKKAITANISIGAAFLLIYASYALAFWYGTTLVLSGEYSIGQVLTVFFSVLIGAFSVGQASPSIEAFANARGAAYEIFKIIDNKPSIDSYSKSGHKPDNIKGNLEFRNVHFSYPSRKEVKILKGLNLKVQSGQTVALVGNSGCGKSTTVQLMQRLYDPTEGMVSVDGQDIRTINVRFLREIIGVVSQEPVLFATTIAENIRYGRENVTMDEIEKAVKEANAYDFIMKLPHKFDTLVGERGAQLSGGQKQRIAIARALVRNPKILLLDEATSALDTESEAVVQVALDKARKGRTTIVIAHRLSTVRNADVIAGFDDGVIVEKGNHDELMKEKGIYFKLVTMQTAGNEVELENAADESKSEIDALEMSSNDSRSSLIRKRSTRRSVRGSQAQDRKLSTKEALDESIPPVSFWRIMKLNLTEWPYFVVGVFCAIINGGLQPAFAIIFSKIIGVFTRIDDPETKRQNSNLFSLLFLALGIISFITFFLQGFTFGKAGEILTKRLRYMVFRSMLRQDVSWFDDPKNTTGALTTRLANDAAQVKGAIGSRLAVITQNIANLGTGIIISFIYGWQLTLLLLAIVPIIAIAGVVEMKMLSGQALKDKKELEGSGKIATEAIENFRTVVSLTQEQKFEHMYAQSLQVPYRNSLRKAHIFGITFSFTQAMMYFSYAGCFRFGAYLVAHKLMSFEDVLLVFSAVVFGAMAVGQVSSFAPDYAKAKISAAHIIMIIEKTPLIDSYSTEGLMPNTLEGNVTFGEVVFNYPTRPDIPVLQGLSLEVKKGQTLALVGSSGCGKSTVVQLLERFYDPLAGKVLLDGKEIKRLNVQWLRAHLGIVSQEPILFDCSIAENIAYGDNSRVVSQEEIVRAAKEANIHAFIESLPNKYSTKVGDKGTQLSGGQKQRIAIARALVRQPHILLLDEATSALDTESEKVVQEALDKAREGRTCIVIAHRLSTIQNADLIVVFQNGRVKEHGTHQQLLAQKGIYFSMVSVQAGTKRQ

Row | SMILES | minimum effective concentration (MEC), Dox accumulation (P-gp [1]) [µM] | FIR Lucena 1 (P-gp [1]; 0.31 µM) | FIR Lucena 1 (P-gp [1]; 0.62 µM) | FIR Lucena 1 (P-gp [1]; 1.25 µM) | FIR Lucena 1 (P-gp [1]; 2.5 µM) | FIR Lucena 1 (P-gp [1]; 5 µM) | FIR Lucena 1 (P-gp [1]; 10 µM) | FIR Lucena 1 (P-gp [1]; 20 µM) | FIR K562 (K562 cells; compound 20 µM) | IC50 at 48 h [2] [µM] | IC50 at 48 h [3] [µM] | FIR K562 (K562 cells; compound 10 µM) | FIR K562 (K562 cells; compound 5 µM) | Rho123 fluorescence intensity, fold lower in Lucena 1 with respect to K562 (P-gp [4]) [fold]
1 | COc1ccc2[nH]c(=O)c(CNc3ccc(Nc4nccc(-c5ccc6ccccc6c5)n4)cc3)cc2c1 [Compound 5b] | 0.62 | 1.07 ± 0.03 | 1.16 ± 0.07 | 1.21 ± 0.07 | 1.29 ± 0.08 | 1.31 ± 0.08 | 1.25 ± 0.07 | 1.36 ± 0.08 | 0.96 ± 0.02 | – | – | – | – | –
2 | COc1cc2cc(COc3nccc(-c4ccc(Cl)cc4)n3)c(=O)[nH]c2cc1OC [Compound 11] | 1.25 | – | 1.02 ± 0.02 | 1.14 ± 0.02 | 1.23 ± 0.04 | 1.38 ± 0.07 | 1.30 ± 0.07 | 2.87 ± 0.55 | 1.44 ± 0.03 | 3.8 ± 0.1 | 10.7 ± 0.15 | 1.01 ± 0.02 | – | –
3 | COc1ccc2[nH]c(=O)c(CNc3ccc(Nc4nccc(-c5ccc(Cl)cc5)n4)cc3)cc2c1 [Compound 4b] | 2.5 | – | – | 1.10 ± 0.13 | 1.20 ± 0.06 | 1.20 ± 0.06 | 1.23 ± 0.08 | 1.29 ± 0.08 | 0.90 ± 0.03 | – | – | – | – | –
4 | COc1ccc2[nH]c(=O)c(CN3CCN(c4nccc(-c5ccc(Cl)cc5)n4)CC3)cc2c1 [Compound 6b] | 2.5 | – | – | 1.01 ± 0.03 | 1.15 ± 0.05 | 1.32 ± 0.09 | 1.44 ± 0.13 | 1.55 ± 0.07 | 0.94 ± 0.10 | – | – | – | – | –
5 | CC(=O)c1ccc(Nc2nccc(-c3ccc4ccccc4c3)n2)cc1 [Compound 3] | 10 | – | – | – | – | 1.06 ± 0.05 | 1.24 ± 0.02 | 1.70 ± 0.22 | 0.98 ± 0.07 | – | – | – | – | –
6 | NCCN1CCN(c2nccc(-c3ccc(Cl)cc3)n2)CC1 [Compound 10] | 1.25 | – | 1.06 ± 0.04 | 1.11 ± 0.03 | 1.26 ± 0.04 | 1.41 ± 0.09 | 1.30 ± 0.05 | 1.72 ± 0.14 | 1.18 ± 0.03 | – | – | 0.98 ± 0.06 | – | –
7 | COc1ccc(CCN(C)CCCC(C#N)(c2ccc(OC)c(OC)c2)C(C)C)cc1OC (centres unmarked) [verapamil, reference compound] | – | – | – | – | – | – | – | – | 1.08 ± 0.05 | – | – | – | – | –
8 | COc1cccc2c1C(=O)c1c(O)c3c(c(O)c1C2=O)C[C@@](O)(C(=O)CO)C[C@@H]3O[C@H]1C[C@H](N)[C@H](O)[C@H](C)O1 [doxorubicin, reference compound] | – | – | – | – | – | – | – | – | – | 0.64 ± 0.13 | 23 ± 5.41 | – | – | –
9 | O=c1[nH]c2ccccc2cc1CN1CCN(c2nccc(-c3ccc4ccccc4c3)n2)CC1 [Compound 7a] | 1.25 | – | 0.95 ± 0.02 | 1.10 ± 0.03 | 1.28 ± 0.12 | 1.38 ± 0.11 | 1.52 ± 0.17 | 1.33 ± 0.11 | 1.02 ± 0.07 | – | – | – | – | –
10 | COc1cc2cc(CNc3ccc(Nc4nccc(-c5ccc(Cl)cc5)n4)cc3)c(=O)[nH]c2cc1OC [Compound 4c] | 0.62 | 1.03 ± 0.01 | 1.11 ± 0.03 | 1.24 ± 0.08 | 1.31 ± 0.11 | 1.32 ± 0.09 | 1.28 ± 0.07 | 1.39 ± 0.07 | 0.93 ± 0.02 | – | – | – | – | –
11 | O=c1[nH]c2ccccc2cc1CNc1ccc(Nc2nccc(-c3ccc(Cl)cc3)n2)cc1 [Compound 4a] | 20 | – | – | – | – | – | 1.03 ± 0.01 | 1.21 ± 0.04 | 0.89 ± 0.03 | – | – | – | – | –
12 | O=c1[nH]c2ccccc2cc1CN1CCN(c2nccc(-c3ccc(Cl)cc3)n2)CC1 [Compound 6a] | 5 | – | – | – | 1.06 ± 0.04 | 1.15 ± 0.05 | 1.30 ± 0.05 | 1.40 ± 0.05 | 0.92 ± 0.04 | – | – | – | – | –
13 | c1ccc2cc(-c3ccnc(N4CCNCC4)n3)ccc2c1 [Compound 7] | – | – | – | – | 1.07 ± 0.10 | 1.19 ± 0.05 | 1.42 ± 0.02 | 2.23 ± 0.26 | 1.20 ± 0.06 | – | 17.9 ± 0.55 | 1.10 ± 0.08 | – | –
14 | O=c1[nH]c2ccccc2cc1CNc1ccc(Nc2nccc(-c3ccc4ccccc4c3)n2)cc1 [Compound 5a] | 2.50 | – | – | 0.95 ± 0.05 | 1.05 ± 0.01 | 1.06 ± 0.01 | 1.10 ± 0.02 | 1.24 ± 0.07 | 0.86 ± 0.02 | – | – | – | – | –
15 | Clc1ccc(-c2ccnc(N3CCNCC3)n2)cc1 [Compound 6] | – | – | – | 1.09 ± 0.06 | 1.18 ± 0.04 | 1.18 ± 0.03 | 1.38 ± 0.08 | 1.65 ± 0.12 | 1.20 ± 0.02 | – | – | 1.19 ± 0.02 | 1.09 ± 0.04 | –
16 | COC(=O)c1ccccc1-c1c2ccc(=N)cc-2oc2cc(N)ccc12 [Rhodamine 123, reference compound] | – | – | – | – | – | – | – | – | – | – | – | – | – | 5.87
